pIC50: −log10 of the molar value.
Tests used:
[1] = biological target: T1, Glycogen phosphorylase, muscle form (Oryctolagus cuniculus) (UniProt P00489); experiment: Inhibition of rabbit muscle glycogen phosphorylase-a assessed as formation of inorganic phosphate from glucose-1-phosphate at 222 uM by colorimetry
T1 sequence (whole entry): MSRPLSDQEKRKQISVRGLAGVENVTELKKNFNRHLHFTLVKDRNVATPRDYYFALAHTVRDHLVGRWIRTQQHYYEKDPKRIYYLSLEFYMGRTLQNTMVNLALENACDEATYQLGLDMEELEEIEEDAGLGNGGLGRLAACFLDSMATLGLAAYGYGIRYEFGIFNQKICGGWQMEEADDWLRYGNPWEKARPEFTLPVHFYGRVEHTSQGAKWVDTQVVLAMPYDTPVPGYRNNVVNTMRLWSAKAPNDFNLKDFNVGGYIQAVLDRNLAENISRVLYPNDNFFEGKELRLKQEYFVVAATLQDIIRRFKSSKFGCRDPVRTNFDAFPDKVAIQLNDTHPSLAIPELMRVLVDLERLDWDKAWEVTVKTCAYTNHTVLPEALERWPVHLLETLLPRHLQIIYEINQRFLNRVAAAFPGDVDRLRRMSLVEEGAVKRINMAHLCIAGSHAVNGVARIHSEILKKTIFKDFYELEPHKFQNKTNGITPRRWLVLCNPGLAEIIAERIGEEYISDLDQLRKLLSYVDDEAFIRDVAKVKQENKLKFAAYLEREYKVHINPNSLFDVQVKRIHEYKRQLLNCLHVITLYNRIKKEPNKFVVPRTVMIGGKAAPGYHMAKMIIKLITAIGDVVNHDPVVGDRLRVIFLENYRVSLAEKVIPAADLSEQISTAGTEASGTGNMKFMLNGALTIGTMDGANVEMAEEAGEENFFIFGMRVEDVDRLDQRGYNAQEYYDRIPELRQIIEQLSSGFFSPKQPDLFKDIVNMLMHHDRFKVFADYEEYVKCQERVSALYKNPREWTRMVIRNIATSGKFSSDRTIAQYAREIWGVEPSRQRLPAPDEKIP

[2] = biological target: T1, Glycogen phosphorylase, muscle form (Oryctolagus cuniculus); experiment: Inhibition of rabbit muscle glycogen phosphorylase-a assessed as formation of inorganic phosphate from glucose-1-phosphate at 44 uM by colorimetry
[3] = biological target: T2, Glycogen phosphorylase, muscle form (Oryctolagus cuniculus, UniProt P00489); experiment: Inhibition of rabbit muscle glycogen phosphorylase-a assessed as formation of inorganic phosphate from glucose-1-phosphate by colorimetry
T2 sequence (P00489 whole entry): T1 sequence (whole entry)

[4] = biological target: T1, Glycogen phosphorylase, muscle form (Oryctolagus cuniculus); experiment: Inhibition of rabbit muscle glycogen phosphorylase-a assessed as formation of inorganic phosphate from glucose-1-phosphate at 20 uM by colorimetry
[5] = biological target: T1, Glycogen phosphorylase, muscle form (Oryctolagus cuniculus); experiment: Inhibition of rabbit muscle glycogen phosphorylase-a assessed as formation of inorganic phosphate from glucose-1-phosphate at 440 uM by colorimetry
[6] = biological target: T1, Glycogen phosphorylase, muscle form (Oryctolagus cuniculus); experiment: Inhibition of rabbit muscle glycogen phosphorylase-a assessed as formation of inorganic phosphate from glucose-1-phosphate at 4.4 mM by colorimetry
[7] = biological target: T1, Glycogen phosphorylase, muscle form (Oryctolagus cuniculus); experiment: Inhibition of rabbit muscle glycogen phosphorylase-a assessed as formation of inorganic phosphate from glucose-1-phosphate at 90 uM by colorimetry
[8] = biological target: T1, Glycogen phosphorylase, muscle form (Oryctolagus cuniculus); experiment: Inhibition of rabbit muscle glycogen phosphorylase-a assessed as formation of inorganic phosphate from glucose-1-phosphate at 11.1 uM by colorimetry
[9] = biological target: T1, Glycogen phosphorylase, muscle form (Oryctolagus cuniculus); experiment: Inhibition of rabbit muscle glycogen phosphorylase-a assessed as formation of inorganic phosphate from glucose-1-phosphate at 444 uM by colorimetry

SMILES | inhibition [1] | pIC50 ([3]; read-out: IC50) | further results
CCOC(=O)Cn1cccc(NCc2cccn2S(=O)(=O)c2ccc(C)cc2)c1=O | 75% | – | –
O=C(Cn1cccc(NCc2ccccc2)c1=O)NCCc1ccc(Cl)cc1Cl | – | – | inhibition [2]: 93%
O=C(Cn1cccc(NCc2ccccc2)c1=O)Nc1ccccc1 | – | – | IC50 [3]: Not Active
O=C(Cn1cccc(NCCCc2ccccc2)c1=O)NCCc1ccc(Cl)c(Cl)c1 | – | 4.17 | –
O=C(Cn1cccc(NCc2cccc(Cl)c2)c1=O)Nc1ccc(Cl)c(Cl)c1 | – | – | inhibition [4]: 33%
CCCNC(=O)Cn1cccc(NCc2ccc(Cl)c(Cl)c2)c1=O | 67% | – | –
CCOC(=O)Cn1cccc(NCc2ccc(Cl)cc2)c1=O | 75% | – | –
O=C(Cn1cccc(NCc2ccc(Cl)c(Cl)c2)c1=O)Nc1ccc(Cl)c(Cl)c1 | 98% | – | pIC50 ([3]; read-out: IC50(app)): 4.73
O=C(Cn1cccc(NCc2ccc(Cl)c(Cl)c2)c1=O)NCc1ccc(Cl)c(Cl)c1 | – | 5.72 | –
O=C(Cn1cccc(NCc2ccccn2)c1=O)NCc1ccc(Cl)c(Cl)c1 | – | – | IC50 [3]: Not Active
O=C(Cn1cccc(NC(=O)c2ccccc2)c1=O)Nc1ccc(Cl)c(Cl)c1 | 100% | – | pIC50 ([3]; read-out: IC50(app)): 4.89
O=C(Cn1cccc(NCc2ccc(Cl)cc2)c1=O)Nc1ccc(Cl)c(Cl)c1 | – | – | IC50 [3]: Not Active
O=C(Cn1cccc(NCc2ccc(Cl)c(Cl)c2)c1=O)NCCc1ccc(Cl)cc1Cl | – | – | inhibition [2]: 22%
O=C(Cn1cccc(NCc2ccc(Cl)c(Cl)c2)c1=O)Nc1ccccc1 | – | – | inhibition [5]: 19%
O=C(Cn1cccc(NCc2cccs2)c1=O)NCc1ccc(Cl)c(Cl)c1 | 73% | – | pIC50 ([3]; read-out: IC50(app)): 4.71
O=C(Cn1cccc(NCCCc2ccccc2)c1=O)NCc1ccc(Cl)c(Cl)c1 | – | – | inhibition [6]: 33%
Cc1ccc(S(=O)(=O)n2cccc2CNc2cccn(CC(=O)NCc3ccc(Cl)c(Cl)c3)c2=O)cc1 | – | 5.47 | –
O=C(Cn1cccc(NCc2ccccc2)c1=O)Nc1ccc(Cl)c(Cl)c1 | – | – | inhibition [7]: 41%
O=C(Cn1cccc(NCc2ccccc2Cl)c1=O)Nc1ccc(Cl)c(Cl)c1 | – | 4.24 | –
CCOC(=O)Cn1cccc(NCc2ccc(Cl)c(Cl)c2)c1=O | 43% | – | –
O=C(Cn1cccc(NCc2ccc([N+](=O)[O-])cc2)c1=O)NCc1ccc(Cl)c(Cl)c1 | – | – | pIC50 ([3]; read-out: IC50(app)): 5.60; inhibition [8]: 100%
O=C(Cn1cccc(NCc2ccc(Cl)c(Cl)c2)c1=O)NCCc1ccc(Cl)c(Cl)c1 | – | – | pIC50 ([3]; read-out: IC50(app)): 4.65; inhibition [8]: 98%
Cc1ccc(S(=O)(=O)Nc2cccn(CC(=O)NCc3ccc(Cl)c(Cl)c3)c2=O)cc1 | 37% | – | –
O=C(Cn1cccc(NCc2ccccc2)c1=O)NCCc1ccc(Cl)c(Cl)c1 | – | – | inhibition [9]: 80%

Now from value to compound, other results behind:

inhibition [1] | pIC50 ([3]; read-out: IC50) | SMILES | further results
– | 4.50 | O=C(Cn1cccc(NCc2ccc(Cl)c(Cl)c2)c1=O)NCCc1ccccc1 | –
77% | 4.73 | O=C(Cn1cccc(NCc2ccccc2Cl)c1=O)NCc1ccc(Cl)c(Cl)c1 | –
– | 5.25 | O=C(Cn1cccc(NCc2cccc(Cl)c2)c1=O)NCc1ccc(Cl)c(Cl)c1 | –
– | 5.68 | O=C(Cn1cccc(NCc2ccc(Cl)cc2)c1=O)NCc1ccc(Cl)c(Cl)c1 | –
– | 4.99 | O=C(Cn1cccc(NCc2ccc(Cl)c(Cl)c2)c1=O)NCc1ccccc1 | –

Reference: ChEMBL document CHEMBL3769302, “2-Oxo-1,2-dihydropyridinyl-3-yl amide-based GPa inhibitors: Design, synthesis and structure-activity relationship study” (Eur J Med Chem, 2016)
